Where two headings read alike, the source gives them in different places.
Tests used:
[1] = system: licking reflex of mice on a plate heated at 55° C.; assay: Hot-plate test (55° C.): specific antalgic effect; assay type: in vivo; details: intravenous; for ED50: Mus musculus, hot plate 55° C.
Method: (§1) Licking reflex of mice on a plate heated at 55° C. according to the method of Jacob. and co-workers (Arch. Int. Pharmacodyn. 122, 287-300, 1959: 133, 296-300, 1961).
(b) Specific antalgic effect

[2] = target: enkephalinase (enkephalin dipeptidylcarboxypeptidase); assay: Determination of enkephalinasic (enkephalin dipeptidylcarboxypeptidasic) activity and effect of inhibitors, striatal membrane fraction, 3H-leucine-enkephalin; assay type: biochemical, rats or mice; details: 10 nM leucine-enkephalin 3H, 25° C., pH 7.4, 15 mn, read-out: 50% inhibitory concentration
Method: Determination of the "enkephalinasic" (enkephalin dipeptidylcarboxypeptidasic) activity and determination of the effect of inhibitors.
The enzyme preparation used is a membrane fraction from the striatum of rats or mice.
This fraction is obtained by homogenization at 4° C. in 20 volumes Tris-HCl buffer 0.05M (pH 7.4) followed by two successive centrifugations (1000 g×min. and 200,000 g×min.) at the end of which the sediment of the second centrifugation is retained. It is washed by re-suspension in 10 ml of the buffer followed by centrifugation (200,000 g×min) and the resulting sediment is in turn washed superficially to complete the removal of the soluble enzymes. The resulting membrane fraction is taken up into the buffer at 4° C., to obtain a suspension comprising about 1.5 mg proteins per ml.
An aliquot sample (50 μl) of the membrane suspension is then incubated in a final volume of 100 μl at 25° C. in the presence of 10 nM leucine-enkephalin ^3 H (39 Ci/mmole), previously purified by column chromatography over Porapak Q (100-120 mesh, Waters Assoc.) and […] puromycine, an aminopeptidase inhibitor. Incubation time is generally set at 15 mn. in order to determine the initial rate of the formation of tripeptide Tyr-Gly-Gly-^3 H characteristic of the enkephalin dipeptidylcarboxypeptidasic (enkephalinasic) activity.
Determination of the radioactivity of the tripeptide is effected by liquid scintillation spectrometry. […]

[3] = system: licking reflex of mice on a plate heated at 55° C.; assay: Hot-plate test (55° C.): potentiation of the antalgic effect of D Ala2 Met Enkephalin and Naloxone antagonism; assay type: in vivo; details: for % Increase of the licking time with respect to the animals treated with D Ala2 Met Enkephalin (1): dosage 10 α/mouse; for Potentiation of the effect of a subactive dosage of D Ala2 Met Enkephalin: 0.3γ D Ala2 Met Enkephalin
Method: as §1
(a) Potentiation of the antalgic effect of D Ala2 Met Enkephalin
(α) By the intraventricular route (ivt)
(β) By the intravenous route

Tail of the mice = details: for potentiation of D Ala2 Met Enkephalin: compound i.v. 100 mg/kg, D Ala2 Met Enkephalin 15 minutes later, ivt, 10 to 30γ/mouse; for specific antalgic effect (tail withdrawal): i.v. 100 mg/kg
blood-pressure = assay: Hypotensive activity; assay type: in vivo, dogs; details: Canis lupus familiaris; intravenous administration; read-out: lowest dosage producing a decrease of the blood-pressure
Text: enkephalin-potentiating activity, (LAUBIE M., SCHMITT H., VINCENT M., REMON D. Central cardiovascular effects of Morphinometric peptids in dogs. European Journal of Pharmacology, Vol. 46, 67-71, 1977).

[4] = system: phenylbenzoquinone-induced pain; assay: Phenylbenzoquinone or writhing test; assay type: in vivo; details: 0.7 mg/kg i.v.; vs controls p<0.01
Text: 3--Phenylbenzoquinone or "writhing test" according to the method of SIEGMUND and co-workers (Proc. Soc. Expert. Biol. Med. 1957, 95, 729-731).

[5] = ivt, + D Ala2 Met Enkephalin 0.3 α/mouse

COC(=O)CNC(=O)C(CSC(C)=O)Cc1ccccc1 (racemic) [Compound 19, N-[(RS)-3-acetylthio-2-benzyl-propionyl]glycine methyl ester] was tested, and the ED50 [1] was 30 mg/kg and the “antalgic effect in the hot (55° C.) plate test” value [1] was “have an antalgic effect”.
Compound CC(C)C[C@H](NC(=O)[C@@H](Cc1ccccc1)NCC(=O)O)C(=O)O [Compound 5, N-(carboxy-methyl)-D.phenylalanine-L.leucine] has an IC50 [2] of 20000 nM.
With CC(=O)SCS[C@@H](Cc1ccccc1)C(=O)N[C@@H](CC(C)C)C(=O)O [Compound 33, N-[(S)-2-acetylthiomethylthio-3-phenyl-propionyl]-L.leucine] the IC50 [2] was 1000 nM.
CC(C)C[C@H](NC(=O)[C@H](Cc1ccccc1)SCCS)C(=O)O [Compound 35, N-[(S)-2-mercapto-ethylthio-3-phenyl-propionyl]-L.leucine] was tested, and the “increase of the licking time with respect to the animals treated with D Ala2 Met Enkephalin” value ([3]; compound i.v. 100 mg/kg, D Ala2 Met Enkephalin 0.3γ intraventricular) was 100%, the “% Increase of the licking time with respect to the animals treated with D Ala2 Met Enkephalin (1)” value (shortened to “% Increase of the licking time”) [3, 5] was 240% and the “% Increase of the licking time” value ([3]; ivt, + D Ala2 Met Enkephalin 0.3 α/mouse + Naloxone 10 mg/kg s.c.) was 18%. For the same compound, the “Potentiation of the effect of a subactive dosage of D Ala2 Met Enkephalin” value ([3]; ivt) was “significantly potentiated (p≤0.05)” and the IC50 [2] was 400 nM.
CC(=O)SCC(Cc1ccccc1)C(=O)NCC(=O)OCC(F)(F)F (stereo not shown) [Compound 55, N-[3-Acetylthio-2-benzylpropanoyl]-glycine-2,2,2-trifluoroethyl ester] was tested, and the IC50 [2] was 350 nM.
O=C(CNC(=O)C(CS)Cc1ccccc1)NCc1ccccc1 (stereo not shown) [Compound 60, N-[3-Mercapto-2-benzyl-propanoyl]glycine benzylamide] gave an IC50 [2] of 30 nM.
With CC(C)C[C@H](NC(=O)[C@H](Cc1ccccc1)NCC(=O)O)C(=O)O [Compound 2, N-(carboxy-methyl)L.phenylalanine-L.leucine] the “% Increase of the licking time” value [3, 5] was 274%, the “Potentiation of the effect of a subactive dosage of D Ala2 Met Enkephalin” value ([3]; ivt) was “significantly potentiated (p≤0.05)” and the IC50 [2] was 1500 nM.
With CC(C)C[C@H](NC(=O)C(CS)Cc1ccccc1)C(=O)O (stereo partly drawn) [Compound 18, N[(R,S)3-mercapto-2-benzyl-propionyl]-L.leucine] the “Increase reaction time (%)” value (Tail of the mice; 100 mg/kg i.v. + D Ala2 Met Enkephalin (30 γ ivt), 20 mn) was 0%, the “Increase reaction time (%)” value (Tail of the mice; 100 mg/kg i.v. + D Ala2 Met Enkephalin (30 γ ivt), 45 mn) was 280% and the “Increase reaction time (%)” value (Tail of the mice; 100 mg/kg i.v. + D Ala2 Met Enkephalin (30 γ ivt), 60 mn) was 166%. The “Increase reaction time (%)” value (Tail of the mice; 100 mg/kg i.v. + D Ala2 Met Enkephalin (30 γ ivt), 90 mn) was 87%, the “Increase reaction time (%)” value (Tail of the mice; 100 mg/kg i.v. + D Ala2 Met Enkephalin (30 γ ivt), 120 mn) was 174% and the “Increase reaction time (%)” value (Tail of the mice; 100 mg/kg i.v. alone, 20 mn) was 38%. For the same compound, the “Increase reaction time (%)” value (Tail of the mice; 100 mg/kg i.v. alone, 45 mn) was 80%, the “Increase reaction time (%)” value (Tail of the mice; 100 mg/kg i.v. alone, 60 mn) was 120% and the “Increase reaction time (%)” value (Tail of the mice; 100 mg/kg i.v. alone, 90 mn) was 61%. The “Increase reaction time (%)” value (Tail of the mice; 100 mg/kg i.v. alone, 120 mn) was 90%, the “potentiation of D Ala2 Met Enkephalin” value (Tail of the mice) was “potentiate most significantly” and the “specific antalgic effect (tail withdrawal)” value (Tail of the mice) was “exhibit a specific antalgic affect”. The minimal effective dose (blood-pressure) was 0.3 mg/kg.
With CC(C)C[C@H](NC(=O)[C@H](Cc1ccccc1)SC(=O)c1ccccc1)C(=O)O [Compound 27, N-[(S)-2-benzoylthio-3-phenyl-propionyl]-L.leucine] the IC50 [2] was 5000 nM.
For O=C(O)CNC(=O)C(CS)Cc1ccccc1 (racemic) [Compound 20, N-[(R,S)-3-mercapto-2-benzyl-propionyl]glycine], the “Increase reaction time (%)” value (Tail of the mice; 30 mg/kg i.v. + D Ala2 Met Enkephalin (15 γ ivt), 20 mn) was 247%, the “Increase reaction time (%)” value (Tail of the mice; 30 mg/kg i.v. + D Ala2 Met Enkephalin (15 γ ivt), 45 mn) was 353% and the “Increase reaction time (%)” value (Tail of the mice; 30 mg/kg i.v. + D Ala2 Met Enkephalin (15 γ ivt), 60 mn) was 283%. For the same compound, the “Increase reaction time (%)” value (Tail of the mice; 30 mg/kg i.v. + D Ala2 Met Enkephalin (15 γ ivt), 90 mn) was 210%, the “Increase reaction time (%)” value (Tail of the mice; 30 mg/kg i.v. + D Ala2 Met Enkephalin (15 γ ivt), 120 mn) was 203% and the “Increase reaction time (%)” value (Tail of the mice; 100 mg/kg i.v. + D Ala2 Met Enkephalin (15 γ ivt), 20 mn) was 239%. The “Increase reaction time (%)” value (Tail of the mice; 100 mg/kg i.v. + D Ala2 Met Enkephalin (15 γ ivt), 45 mn) was 528%, the “Increase reaction time (%)” value (Tail of the mice; 100 mg/kg i.v. + D Ala2 Met Enkephalin (15 γ ivt), 60 mn) was 321% and the “Increase reaction time (%)” value (Tail of the mice; 100 mg/kg i.v. + D Ala2 Met Enkephalin (15 γ ivt), 90 mn) was 382%. The “Increase reaction time (%)” value (Tail of the mice; 100 mg/kg i.v. + D Ala2 Met Enkephalin (15 γ ivt), 120 mn) was 322%, the “Increase reaction time (%)” value (Tail of the mice; 100 mg/kg i.v. alone, 20 mn) was 59% and the “Increase reaction time (%)” value (Tail of the mice; 100 mg/kg i.v. alone, 45 mn) was 196%. For the same compound, the “Increase reaction time (%)” value (Tail of the mice; 100 mg/kg i.v. alone, 60 mn) was 150%, the “Increase reaction time (%)” value (Tail of the mice; 100 mg/kg i.v. alone, 90 mn) was 88% and the “Increase reaction time (%)” value (Tail of the mice; 100 mg/kg i.v. alone, 120 mn) was 85%. For the same compound, the “potentiation of D Ala2 Met Enkephalin” value (Tail of the mice) was “potentiate most significantly”, the “specific antalgic effect (tail withdrawal)” value (Tail of the mice) was “exhibit a specific antalgic affect” and the IC50 [2] was 5 nM.
“D Ala2 Met Enkephalin [reference compound]” was tested, and the “activity of D Ala2 Met Enkephalin per se” value ([3]; 0.3 α/mouse, ivt) was “inactive per se”.
With COC(=O)[C@H](CC(C)C)NC(=O)[C@H](Cc1ccccc1)SC(C)=O [Compound 29, N-[(S)-2-acetylthio-3-phenyl-propionyl]-L.leucine methyl ester] the “% Increase of the licking time” value [3, 5] was 207% and the “Potentiation of the effect of a subactive dosage of D Ala2 Met Enkephalin” value ([3]; ivt) was “significantly potentiated (p≤0.05)”.
In the case of CC(=O)SCC(Cc1ccccc1)C(=O)NCC(=O)NCc1ccccc1 (stereo not shown) [Compound 56, N-[3-Acetylthio-2-benzylpropanoyl]glycine benzylamide], the IC50 [2] is reported as 400 nM.
For C=CCN1CC[C@]23c4c5ccc(O)c4O[C@H]2C(=O)CC[C@@]3(O)[C@H]1C5 [Naloxone, reference compound], the “antagonism of the potentiated antalgic effect by Naloxone” value ([3]; ivt, compounds + D Ala2 Met Enkephalin) was “this effect is antagonized by Naloxone”.
In the case of CC(C)C[C@H](NC(=O)[C@@H](S)Cc1ccccc1)C(=O)O [Compound 28, N-[(S)-2-mercapto-3-phenyl-propionyl]-L.leucine], the “% Increase of the licking time” value [3, 5] is reported as 400% and the “Potentiation of the effect of a subactive dosage of D Ala2 Met Enkephalin” value ([3]; ivt) is reported as “significantly potentiated (p≤0.05)”.
O=C(CNC(=O)C(CS)Cc1ccccc1)OCc1ccccc1 (stereo not shown) [Compound 57, N-[3-Mercapto-2-benzyl-propanoyl]glycine benzyl ester] showed an IC50 [2] of 7.8 nM.
Work on O=C(N[C@@H](COCc1ccccc1)C(=O)O)C(CS)Cc1ccccc1 (stereo partly drawn) [Compound 24, O-Benzyl-N-[(R,S)-3-mercapto-2-benzyl-propionyl]L.serine] yielded an IC50 [2] of 4 nM and a minimal effective dose (blood-pressure) of 0.3 mg/kg.
In the case of CC(=O)SCC(Cc1ccccc1)C(=O)NCC(=O)OCc1ccc(F)cc1 (stereo not shown) [Compound 54, N-[3-Acetylthio-2-benzylpropanoyl]glycine(p.fluoro)-benzylester], the ED50 [1] is reported as 3 mg/kg, the “antalgic effect in the hot (55° C.) plate test” value [1] is reported as “have an antalgic effect” and the “protection from phenylbenzoquinone-induced pain” value [4] is reported as “protect the treated animals from phenylbenzoquinone-induced pain, with a significant difference with respect to the controls, p<0.01”. For the same compound, the IC50 [2] was 260 nM.
C[C@H](NC(=O)[C@@H](S)Cc1ccccc1)C(=O)O [Compound 32, N-[(S)-2-mercapto-3-phenyl-propionyl]-L.alanine] gave an IC50 [2] of 100 nM.

Reference: US4513009A, “Aminoacid derivatives and their therapeutic applications” (priority 1980, dated 1985)
